The values below come from patent publication US20140213538A1, “LYSOPHOSPHATIDIC ACID RECEPTOR ANTAGONISTS” (InterMune, Inc., priority 2013, published 2014).

Experiment [1] addresses T1, LPA/S1P GPCR of interest (Homo sapiens, UniProt Q92633).
T1 construct: host or cells: CHO
Description: Beta-Arrestin based assay (PathHunter). The class given is cell-based. A digest of the protocol:
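EA Parental CHO cells (DiscoverX) were transfected with FuGENE (Roche) using CMV promoter-driven DNA constructs encoding the LPA/S1P GPCR of interest fused to a ProLink tag. Beta-arrestin recruitment in agonist mode was assessed 24-48 hrs later with PathHunter kits. Tests ran in quadruplicate in white 384 well plates, and end point luminescence was fit to a 4 parameter logistic function.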

The target of experiment [2] is LPA1 (Homo sapiens, UniProt Q92633). Description: LPA1 Migration Assay (Oris). The format is cell-based. The following applies: read-out: Cell Migration EC50. More on the design: host or cells: primary fibroblasts (lung, dermal), HFL-1, 3T3 and CHO cells expressing LPA1R. In outline: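 Antagonist inhibition was derived by 4-parameter logistic fitting of migrated-cell counts against compound concentration. Dye-loaded, 12-24 h serum-starved fibroblasts, HFL-1, 3T3 or CHO cells expressing LPA1R moved into an Oris detection zone in response to LPA or serum, then were fixed and counted on a high-content reader.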

Molecules are shown by their SMILES.

T1 sequence (Q92633 whole entry): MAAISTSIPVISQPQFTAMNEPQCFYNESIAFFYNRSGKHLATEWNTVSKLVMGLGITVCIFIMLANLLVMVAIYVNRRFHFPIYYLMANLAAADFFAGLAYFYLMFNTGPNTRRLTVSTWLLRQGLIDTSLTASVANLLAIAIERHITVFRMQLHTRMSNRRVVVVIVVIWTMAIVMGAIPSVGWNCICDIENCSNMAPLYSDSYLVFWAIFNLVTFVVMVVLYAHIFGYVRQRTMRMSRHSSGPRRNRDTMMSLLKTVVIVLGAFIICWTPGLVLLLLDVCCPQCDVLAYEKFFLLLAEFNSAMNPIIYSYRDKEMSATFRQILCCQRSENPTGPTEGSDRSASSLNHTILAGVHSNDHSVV
LPA1, sequence (Q92633 whole entry): as above

With `Cc1noc(-c2ccc(-c3ccc(S(N)(=O)=O)cc3)cc2)c1NC(=O)O[C@H](C)c1ccccc1` [IT129], the EC50 in experiment [1] is 50 to 500 nM; in experiment [2], more than 500 nM.

For `Cc1nnn(-c2ccc(-c3cc(F)c(Oc4ccncc4C(=O)O)c(F)c3)cc2)c1NC(=O)O[C@H](C)c1ccccc1` [IT440], the EC50 in experiment [1] was 50 to 500 nM; in experiment [2] it was more than 500 nM.

With `Cc1nsc(-c2ccc(-c3cc(F)c(Oc4ccncc4C(=O)O)c(F)c3)cc2)c1NC(=O)O[C@H](C)c1ccccc1` [IT439], the EC50 is less than 50 nM in experiment [1] and more than 500 nM in experiment [2].

Turning to `C[C@@H](OC(=O)Nc1c(-c2cc3sc(-c4ccc(CC(=O)O)s4)cc3s2)nnn1C)c1ccccc1` [IT179], the EC50 in experiment [1] is 50 to 500 nM; in experiment [2], more than 500 nM.

Turning to `CC(=O)N(C(C)=O)S(=O)(=O)c1ccc(-c2ccc(-c3onc(C)c3NC(=O)O[C@H](C)c3ccccc3)cc2)cc1` [IT130], the EC50 in experiment [1] and in experiment [2] was more than 500 nM throughout.

`Cc1noc(-c2ccc(-c3cc(F)c(OC(C)(C)C(=O)O)c(F)c3)cc2)c1NC(=O)O[C@H](C)c1ccccc1` [IT500]: the EC50 was less than 50 nM in experiment [1] and 50 to 500 nM in experiment [2].

As to `C[C@@H](OC(=O)Nc1c(-c2ccc(-c3ccc(Oc4cccc(F)c4C(=O)O)cc3)cc2)cnn1C)c1ccccc1` [IT456], the EC50 in experiment [1] is less than 50 nM; in experiment [2] it was 50 to 500 nM.

As for `Cc1nsc(-c2ccc(-c3ccc(OC(C)(C)C(=O)O)cc3)cc2)c1NC(=O)O[C@H](C)c1ccccc1` [IT509], the EC50 in experiment [1] is 50 to 500 nM; in experiment [2] it was more than 500 nM.

On to `C[C@@H](OC(=O)Nc1c(-c2ccc(-c3cc(F)c(OC4(C(=O)O)CC4)c(F)c3)cc2)nnn1C)c1ccccc1` [IT312], for which the figures for the EC50 in experiment [1] and in experiment [2] were less than 50 nM and 50 to 500 nM, respectively.

With `C[C@@H](OC(=O)Nc1c(-c2ccc(-c3ccc(Oc4cccc(F)c4C(=O)O)cc3)cc2)nnn1C)c1ccccc1` [IT455], the EC50 in experiment [1] and in experiment [2] was less than 50 nM each time.

As to `Cc1cc(CC(=O)O)ccc1-c1cc2sc(-c3cnn(C)c3NC(=O)O[C@H](C)c3ccccc3)cc2s1` [IT169], the figures for the EC50 in experiment [1] and in experiment [2] were 50 to 500 nM and more than 500 nM, respectively.

As to `Cc1noc(-c2ccc(-c3ccc(Oc4ccsc4C(=O)O)cc3)cc2)c1NC(=O)O[C@H](C)c1ccccc1` [IT428], the results for the EC50 in experiment [1] and in experiment [2] were less than 50 nM and 50 to 500 nM, respectively.

Turning to `Cc1noc(-c2cc3sc(-c4cc(F)c(OC5(C(=O)O)CC5)c(F)c4)cc3s2)c1NC(=O)O[C@H](C)c1ccccc1` [IT488], the EC50 in experiment [1] and in experiment [2] was 50 to 500 nM each time.

Regarding `Cc1noc(-c2ccc(-c3ccc4c(c3)CCCC4C(=O)O)cc2)c1NC(=O)O[C@H](C)c1ccccc1` (mixture of isomers) [IT038], the values for the EC50 in experiment [1] and in experiment [2] were 50 to 500 nM and more than 500 nM, respectively.

For the compound `C[C@@H](OC(=O)Nc1c(-c2ccc(-c3ccc(Oc4cc(F)ccc4C(=O)O)cc3)cc2)nnn1C)c1ccccc1` [IT468], the EC50 in experiment [1] and in experiment [2] was less than 50 nM each time.

Turning to `C[C@@H](OC(=O)Nc1c(-c2cc3sc(-c4ccc(C5(C(=O)O)CC5)cc4F)cc3s2)nnn1C)c1ccccc1` [IT246], the results for the EC50 in experiment [1] and in experiment [2] were less than 50 nM and 50 to 500 nM, respectively.

In the case of `C[C@@H](OC(=O)Nc1c(-c2cc3sc(-c4ccc(Oc5ccccc5C(=O)O)cc4)cc3s2)cnn1C)c1ccccc1` [IT406], the EC50 in experiment [1] is less than 50 nM; in experiment [2], 50 to 500 nM.

Take `Cc1noc(-c2ccc(-c3ccc(Oc4ccccc4C(=O)O)cn3)cc2)c1NC(=O)O[C@H](C)c1ccccc1` [IT344]: the EC50 was less than 50 nM in experiment [1] and 50 to 500 nM in experiment [2].

For `Cc1nsc(-c2cc3sc(-c4ccc(CC(=O)O)cc4F)cc3s2)c1NC(=O)O[C@H](C)c1ccccc1` [IT135], the EC50 in experiment [1] was 50 to 500 nM; in experiment [2], more than 500 nM.

Regarding `C[C@@H](OC(=O)Nc1c(-c2cc3sc(C#CC4(C(=O)O)CC4)cc3s2)nnn1C)c1ccccc1` [IT145], the EC50 is less than 50 nM in experiment [1] and more than 500 nM in experiment [2].

As for `C[C@@H](OC(=O)Nc1c(-c2ccc(-c3cc(F)c(OC4(C(=O)O)CC4)c(F)c3)cc2)oc2ccccc12)c1ccccc1` [IT491], the EC50 is 50 to 500 nM in experiment [1] and more than 500 nM in experiment [2].

Consider `C[C@@H](OC(=O)Nc1c(-c2cc(F)c(-c3ccc(C4(C(=O)O)CC4)cc3)cc2F)oc2ncccc12)c1ccccc1` [IT096], for which the EC50 in experiment [1] is less than 50 nM; in experiment [2], 50 to 500 nM.

With `CCOC(=O)c1ccccc1Oc1ccc(-c2ccc(-c3nnn(C)c3NC(=O)O[C@H](C)c3ccccc3)cc2)cc1` [IT477], the EC50 was less than 50 nM in experiment [1] and 50 to 500 nM in experiment [2].

Take `C[C@@H](OC(=O)Nc1c(-c2cc3sc(-c4ccc(CC(=O)O)c(Cl)c4)cc3s2)nnn1C)c1ccccc1` [IT166]: the values for the EC50 in experiment [1] and in experiment [2] were 50 to 500 nM and more than 500 nM, respectively.

Consider `C[C@@H](OC(=O)Nc1c(-c2cc3sc(-c4cnc(C5(C(=O)O)CC5)s4)cc3s2)nnn1C)c1ccccc1` [IT189], for which the EC50 in experiment [1] is 50 to 500 nM; in experiment [2], more than 500 nM.

`Cc1noc(-c2ccc(-c3cc(F)c(Oc4ccsc4C(=O)O)c(F)c3)cc2)c1NC(=O)O[C@H](C)c1ccccc1` [IT463]: the EC50 in experiment [1] and in experiment [2] was less than 50 nM throughout.

As for `Cc1nsc(-c2ccc(-c3cc(F)c(Oc4cccnc4C(=O)O)c(F)c3)cc2)c1NC(=O)O[C@H](C)c1ccccc1` [IT464], the figures for the EC50 in experiment [1] and in experiment [2] were less than 50 nM and 50 to 500 nM, respectively.

On to `Cc1noc(-c2ccc(-c3ccc(Oc4ncn(C)c4C(=O)O)cc3)cc2)c1NC(=O)O[C@H](C)c1ccccc1` [IT486], for which the EC50 in experiment [1] was 50 to 500 nM; in experiment [2], more than 500 nM.

`C[C@@H](OC(=O)Nc1c(-c2ccc(-c3ccc(OC(C)(C)C(=O)O)cc3)cc2)cnn1C)c1ccccc1` [IT510]: the EC50 in experiment [1] is 50 to 500 nM; in experiment [2] it was more than 500 nM.

Regarding `Cc1cc(C2(C(=O)O)CC2)ccc1-c1cc2sc(-c3nnn(C)c3NC(=O)O[C@H](C)c3ccccc3)cc2s1` [IT291], the EC50 in experiment [1] is less than 50 nM; in experiment [2], 50 to 500 nM.

Turning to `C[C@@H](OC(=O)Nc1c(-c2ccc(-c3ccc(Oc4cc(F)ccc4C(=O)O)cc3)cc2)cnn1C)c1ccccc1` [IT469], the EC50 was less than 50 nM in experiment [1] and 50 to 500 nM in experiment [2].

Regarding `CCOc1cc(CC(=O)O)ccc1-c1cc2sc(-c3cnn(C)c3NC(=O)O[C@H](C)c3ccccc3)cc2s1` [IT190], the EC50 in experiment [1] and in experiment [2] was more than 500 nM in each case.

As for `Cc1cc(CC(=O)O)ccc1-c1cc2sc(-c3snc(C)c3NC(=O)O[C@H](C)c3ccccc3)cc2s1` [IT170], the EC50 is 50 to 500 nM in experiment [1] and more than 500 nM in experiment [2].

As to `Cc1nsc(-c2cc3sc(-c4cc(F)c(CC(=O)O)c(F)c4)cc3s2)c1NC(=O)O[C@H](C)c1ccccc1` [IT156], the EC50 in experiment [1] is 50 to 500 nM; in experiment [2] it was more than 500 nM.

As for `C[C@@H](OC(=O)Nc1c(-c2ccc(-c3ccc(OC4(C(=O)O)CC4)c(F)c3)cc2)oc2ccccc12)c1ccccc1` [IT492], the EC50 in experiment [1] was 50 to 500 nM; in experiment [2], more than 500 nM.

As to `C[C@@H](OC(=O)Nc1c(-c2cc3sc(-c4cc(Cl)c(CC(=O)O)cc4F)cc3s2)cnn1C)c1ccccc1` [IT187], the EC50 in experiment [1] and in experiment [2] was more than 500 nM throughout.

In the case of `Cc1noc(-c2ccc(-c3ccc(Oc4ncncc4C(=O)O)cc3)cc2)c1NC(=O)O[C@H](C)c1ccccc1` [IT230], the EC50 in experiment [1] is less than 50 nM; in experiment [2], 50 to 500 nM.

For the compound `C[C@@H](OC(=O)Nc1c(-c2ccc(-c3cc(F)c(Oc4ccsc4C(=O)O)c(F)c3)cc2)cnn1C)c1ccccc1` [IT465], the EC50 in experiment [1] and in experiment [2] was less than 50 nM each time.

Turning to `Cc1nnn(-c2ccc(-c3cc(F)c(Oc4cccnc4C(=O)O)c(F)c3)cc2)c1NC(=O)O[C@H](C)c1ccccc1` [IT437], the EC50 in experiment [1] was less than 50 nM; in experiment [2], 50 to 500 nM.

As to `C[C@@H](OC(=O)Nc1c(-c2cc3sc(-c4cc(F)c(C5(C(=O)O)CC5)cc4F)cc3s2)cnn1C)c1ccccc1` [IT347], the EC50 was less than 50 nM in experiment [1] and 50 to 500 nM in experiment [2].

`Cc1nnn(-c2ccc(-c3ccc(Oc4ccccc4C(=O)O)cc3)cc2)c1NC(=O)O[C@H](C)c1ccccc1` [IT310]: the EC50 is 50 to 500 nM in experiment [1] and more than 500 nM in experiment [2].

For `Cc1nsc(-c2cc(F)c(-c3nc4sc(C5(C(=O)O)CC5)cc4s3)cc2F)c1NC(=O)O[C@H](C)c1ccccc1` [IT201], the EC50 was less than 50 nM in experiment [1] and 50 to 500 nM in experiment [2].

As for `C[C@@H](OC(=O)Nc1c(-c2cc3sc(-c4ccc(CC(=O)O)cc4Cl)cc3s2)nnn1C)c1ccccc1` [IT168], the EC50 in experiment [1] and in experiment [2] was more than 500 nM each time.

For `CCC(C)OC(=O)Nc1c(C)noc1-c1ccc(-c2ccc(Oc3ccccc3C(=O)O)cc2)cc1` (single isomer, unassigned) [IT493], the EC50 in experiment [1] was 50 to 500 nM; in experiment [2], more than 500 nM.

With `Cc1cc(CC(=O)O)ccc1-c1cc2sc(-c3nnn(C)c3NC(=O)O[C@H](C)c3ccccc3)cc2s1` [IT171], the EC50 in experiment [1] was 50 to 500 nM; in experiment [2], more than 500 nM.

As for `Cc1nsc(-c2cc3sc(-c4cc(F)c(C5(C(=O)O)CC5)c(F)c4)cc3s2)c1NC(=O)O[C@H](C)c1ccccc1` [IT263], the EC50 in experiment [1] is less than 50 nM; in experiment [2] it was 50 to 500 nM.

Consider `C[C@@H](OC(=O)Nc1c(-c2ccc(-c3ccc(C(C(=O)O)C4COC4)cc3)cc2)cnn1C)c1ccccc1` (stereo partly drawn) [IT150], for which the EC50 in experiment [1] and in experiment [2] was 50 to 500 nM each time.

`C[C@@H](OC(=O)Nc1c(-c2cc3sc(-c4ccc(C5(C(=O)O)CC5)c(Cl)c4)cc3s2)nnn1C)c1ccccc1` [IT266]: the EC50 in experiment [1] is less than 50 nM; in experiment [2], 50 to 500 nM.
